Laboratory results: patent US12503452B2 (Curza Global, LLC, priority 2019, dated 2025)
Counter-ions that a name gives are not always drawn. Like-named read-outs stand apart in the source and are kept apart here.

Key:
[1] = target: Rabbit Reticulocyte Lysate (eukaryotic protein synthesis); assay: Rabbit reticulocyte lysate luciferase assay (inhibition of eukaryotic protein synthesis); type: biochemical; settings: read-out: Rabbit reticulocyte IC50 (μM/% inhib.)
Summary of the method: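 Compounds were tested in 8-point 2-fold dilution series for blocking luciferase synthesis in nuclease-treated rabbit reticulocyte lysate (30° C., 90 minutes). Luminescence read-out, corrected by no-RNA background, was expressed as % inhibition against water-only reactions.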

E. faecalis (Ef) = assay: Broth microdilution minimum inhibitory concentration (MIC); type: cell-based; settings: Enterococcus faecalis, read-out: Ef + bicarb MIC
Description: (§1) A certified BSL-2 laboratory was used for testing. Compounds were evaluated using the broth microdilution minimum inhibitory concentration (MIC) and minimum bactericidal concentration (MBC) assays defined by Clinical and Laboratory Standards Institute (CLSI) in the M26-A guideline against S. aureus (Sa), E. coli (Ec), K. pneumoniae (Kp), A. baumannii (Ab), E. faecalis (Ef) and P. aeruginosa (Pa).
(§2) MICs were determined using the Clinical Laboratory and Standards Institute (CLSI) Broth Microdilution Method with slight modification. Clinical and Laboratory Standards Institute (2012). “Methods for dilution antimicrobial susceptibility tests for bacteria that grow aerobically; approved standard, 9th ed. M07-A9. Clinical and Laboratory Standards Institute, Wayne, PA” Serial two-fold dilutions of compounds are prepared in sterile clear round-bottom 96-well plates.
(§3) To prepare microdilution trays, two-fold dilutions of antimicrobial agent are prepared in growth medium: Cation-Adjusted Mueller-Hinton Broth (CAMHB), or CAMHB supplemented with sodium bicarbonate (6.25 or 25 mM final concentration prepared from a 1.0M stock solution) or CAMHB supplemented with heat inactivated human serum (Fisher Cat. #BP2657100) 0-50% by adding 200 μL of the highest concentration to be tested (64 μg/mL, for example) in row A, mixing and transferring 100 μL from row A to 100 μL growth medium in row B, then repeating the mixing and transferring through row H of the 96-well plate, discarding the excess 100 μL remaining. This slight modification to the CLSI protocol enables evaluation of MICs for 3 compounds per plate in triplicate, albeit with only 8 compound dilutions (CLSI protocol enables 2 compounds in triplicate with 10 dilutions). Bacterial suspensions are added to a final concentration of 5×10^4 CFU/well by adding 5 μL of a 1:10 dilution of a 0.5 McFarland suspension (1×10^8 CFU/mL) for each bacterium evaluated. Bacterial suspensions were prepared using the growth method described by CLSI. Well-isolated colonies (3-5 from an agar plate) were selected using a sterile loop and used to inoculate a tube containing 4 mL of CAMHB. The cultures are incubated at 35±2° C. until it achieves or exceeds the turbidity of the 0.5 McFarland standard, determined by measuring A600nm (usually two to six hours). When growth exceeds a 0.5 McFarland standard, the turbidity is adjusted with broth to be equivalent to a 0.5 McFarland standard.

E. coli (Ec) = assay: as above; type: cell-based; settings: Escherichia coli, read-out: E. coli + bicarb MIC
Description: as §1, §2, §3

P. aeruginosa (Pa) = assay: as above; type: cell-based; settings: Pseudomonas aeruginosa, read-out: Pa MIC + bicarb
Description: as §1, §2, §3

S. aureus (Sa) = assay: as above; type: cell-based; settings: Staphylococcus aureus, read-out: Sa + bicarb MIC
Description: as §1, §2, §3

A. baumannii (Ab) = assay: as above; type: cell-based; settings: Acinetobacter baumannii, read-out: Ab + bicarb MIC
Description: as §1, §2, §3

[2] = system: E. coli S30 extract (bacterial protein synthesis); assay: E. coli S30 extract coupled transcription-translation luciferase assay (inhibition of bacterial protein synthesis); type: biochemical; settings: read-out: S30 IC50 (μM/% inhib.)
Summary of the method: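 Luminescent read-out of luciferase made from pBESTluc DNA by E. coli S30 extract after 1 h at 37 °C with compound in an 8-point 2-fold series. Background came from no-DNA reactions. Percent inhibition was calculated against water-only controls.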

[3] = class by IC50 or % inhibition @ 1 μM
[4] = E. faecalis, growth medium supplemented with sodium bicarbonate
[5] = E. coli, growth medium supplemented with sodium bicarbonate
[6] = P. aeruginosa, growth medium supplemented with sodium bicarbonate
[7] = S. aureus, growth medium supplemented with sodium bicarbonate
[8] = A. baumannii, growth medium supplemented with sodium bicarbonate
[9] = E. faecalis, growth medium with sodium bicarbonate
[10] = A. baumannii, growth medium with sodium bicarbonate
[11] = E. coli, growth medium with sodium bicarbonate
[12] = P. aeruginosa, growth medium with sodium bicarbonate

SMILES	IC50 [1, 3] [µM]	IC50 [2, 3] [µM]	MIC (E. faecalis (Ef); [4]) [µg/mL]	MIC (E. coli (Ec); [5]) [µg/mL]	MIC (P. aeruginosa (Pa); [6]) [µg/mL]	MIC (A. baumannii (Ab); [8]) [µg/mL]	also measured
CC(C)(N)C(=O)N1CCN(C(=O)Nc2ccn(-c3ccc(CNC4CCC[C@@H](N)C4)cc3)c(=O)n2)CC1 (mixture of isomers) [Compound 320, hydrochloride salt]	> 1	< 0.5					MIC (E. faecalis (Ef)): > 32 µg/mL; MIC (E. coli (Ec)): < 8 µg/mL; MIC (P. aeruginosa (Pa)): > 32 µg/mL; MIC (S. aureus (Sa)): 8 to 32 µg/mL; MIC (A. baumannii (Ab)): > 32 µg/mL
CC(Cc1ccc(-n2ccc(NC(=O)N3CCN(C(=O)C(C)(C)N)CC3)nc2=O)cc1)NC[C@@H]1CCC[C@@H](N)C1 (mixture of isomers) [Compound 155]	> 1	> 1	> 32	< 8	> 32	> 32	MIC (S. aureus (Sa); [7]): 8 to 32 µg/mL
C[C@H]1CN(Cc2ccc(-n3ccc(NC(=O)N4CCN(C(=O)C(C)(C)N)CC4)nc3=O)cc2)CC[C@H]1N (stereo in doubt) [Compound 297, hydrochloride salt]	> 1	0.5 to 1					MIC (E. faecalis (Ef)): 8 to 32 µg/mL; MIC (E. coli (Ec)): < 8 µg/mL; MIC (P. aeruginosa (Pa)): > 32 µg/mL; MIC (S. aureus (Sa)): < 8 µg/mL
C[C@](N)(CO)C(=O)N1CCN(C(=O)Nc2ccn(-c3ccc(CCN4CCC[C@@H](N)C4)cc3)c(=O)n2)CC1 [Compound 12]	> 1	0.5 to 1		> 32	> 32	> 32	
CC(N)C1CCCN(CCc2ccc(-n3ccc(NC(=O)N4CCN(C(=O)C(C)(C)N)CC4)nc3=O)cc2)C1 (stereo not drawn) [Compound 22]	> 1	< 0.5		< 8	> 32		MIC (S. aureus (Sa); [7]): < 8 µg/mL
C[C@@H]1CN(CCc2ccc(-n3ccc(NC(=O)N4CCN(C(=O)C(C)(C)N)CC4)nc3=O)cc2)CC[C@H]1N [Compound 41]	> 1	< 0.5	8 to 32			> 32	
CC(N)[C@H]1CCN(CCc2ccc(-n3ccc(NC(=O)N4CCN(C(=O)C(C)(C)N)CC4)nc3=O)cc2)C1 (stereo partly drawn) [Compound 42]	> 1	< 0.5	8 to 32	< 8	8 to 32	> 32	
CC(N)[C@@H]1CCN(CCc2ccc(-n3ccc(NC(=O)N4CCN(C(=O)C(C)(C)N)CC4)nc3=O)cc2)C1 (stereo partly drawn) [Compound 43]	> 1	< 0.5	8 to 32	< 8	8 to 32	> 32	
CC(N)[C@@H]1CCN(Cc2ccc(-n3ccc(NC(=O)N4CCN(C(=O)C(C)(C)N)CC4)nc3=O)cc2)C1 (stereo partly drawn) [Compound 44]	> 1	< 0.5	< 8			> 32	
CC(N)[C@H]1CCN(Cc2ccc(-n3ccc(NC(=O)N4CCN(C(=O)C(C)(C)N)CC4)nc3=O)cc2)C1 (stereo partly drawn) [Compound 45]	> 1	< 0.5	< 8			> 32	
NC1CCN(Cc2ccc(-n3ccc(NC(=O)N4CC(N)C4)nc3=O)cc2)CC1 [Compound 49]	> 1	> 1		> 32	> 32	> 32	
CC(C)(N)C(=O)N1CCN(C(=O)Nc2ccn(-c3ccc(CN4CCC(N)CC4)cc3)c(=O)n2)C(c2ccccc2)C1 (stereo not drawn) [Compound 59]	> 1	> 1		> 32	> 32	> 32	
CC(C)(N)C(=O)N1C2COCC1CN(C(=O)Nc1ccn(-c3ccc(CN4CCC(N)CC4)cc3)c(=O)n1)C2 [Compound 68]	> 1	0.5 to 1		< 8	> 32		MIC (S. aureus (Sa); [7]): > 32 µg/mL
C[C@@H]1CN(C(=O)Nc2ccn(-c3ccc(CN4CCC(N)CC4)cc3)c(=O)n2)[C@@H](C)CN1C(=O)C(C)(C)N [Compound 74]	> 1			> 32	> 32	> 32	
CC(C)(N)C(=O)N1CC2COCC(C1)N2C(=O)Nc1ccn(-c2ccc(CN3CCC(N)CC3)cc2)c(=O)n1 [Compound 85]	> 1	> 1		< 8	> 32		MIC (S. aureus (Sa); [7]): > 32 µg/mL
C[C@@H]1CN(C(=O)[C@@](C)(N)CO)CCN1C(=O)Nc1ccn(-c2ccc(CN3CCC(N)CC3)cc2)c(=O)n1 [Compound 89]	> 1	< 0.5	> 32			> 32	
Cc1cc(-n2ccc(NC(=O)N3CCN(C(=O)C(C)(C)N)CC3)nc2=O)ccc1CN1CCC(N)CC1 [Compound 91]	> 1	< 0.5	< 8	< 8	> 32	> 32	
CNC(C)(C)C(=O)N1CCN(C(=O)Nc2ccn(-c3ccc(CN4CCC(N)CC4)cc3)c(=O)n2)CC1 [Compound 96]	> 1	> 1		< 8	> 32		MIC (S. aureus (Sa); [7]): < 8 µg/mL
C[C@](N)(CO)C(=O)N1CCN(C(=O)Nc2ccn(-c3ccc(CN4CCC(N)CC4)c(Cl)c3)c(=O)n2)CC1 [Compound 98]	> 1	< 0.5		< 8	> 32		MIC (S. aureus (Sa); [7]): < 8 µg/mL
CC(N)C1CCCN(Cc2ccc(-n3ccc(NC(=O)N4CCN(C(=O)C(C)(C)N)CC4)nc3=O)cc2)C1 (stereo not drawn) [Compound 109]	> 1	< 0.5		< 8	> 32		MIC (S. aureus (Sa); [7]): < 8 µg/mL
CC(C)(N)C(=O)N1CCN(C(=O)Nc2ccn(-c3ccc(CN4CC(CN)C4)cc3)c(=O)n2)CC1 [Compound 133]	> 1	< 0.5	> 32			> 32	
CC(C)(N)C(=O)N1CCN(C(=O)Nc2ccn(-c3ccc(CN4CC(CCN)C4)cc3)c(=O)n2)CC1 [Compound 134]	> 1	< 0.5	8 to 32	< 8	> 32	> 32	
CC(N)C1CCN(CCc2ccc(-n3ccc(NC(=O)N4CCN(C(=O)C(C)(C)N)CC4)nc3=O)cc2)CC1 (stereo not drawn) [Compound 168]	> 1	< 0.5					MIC (E. faecalis (Ef); [9]): 8 to 32 µg/mL; MIC (A. baumannii (Ab); [10]): > 32 µg/mL
CC1CN(Cc2ccc(-n3ccc(NC(=O)N4CCN(C(=O)[C@@](C)(N)CO)CC4)nc3=O)cc2)CCC1N (stereo partly drawn) [Compound 223]	> 1	0.5 to 1					MIC (E. faecalis (Ef); [9]): < 8 µg/mL; MIC (E. coli (Ec); [11]): < 8 µg/mL; MIC (P. aeruginosa (Pa); [12]): > 32 µg/mL; MIC (A. baumannii (Ab); [10]): > 32 µg/mL
C[C@](N)(CO)C(=O)N1CCN(C(=O)Nc2ccn(-c3ccc(CCN4CCC(NC(=N)N)CC4)cc3)c(=O)n2)CC1 [Compound 349, hydrochloride salt]							IC50 ([1]; % inhibition @ 1 μM): 0.5 to 1 µM; MIC (E. coli (Ec)): < 8 µg/mL; MIC (S. aureus (Sa)): 8 to 32 µg/mL; IC50 ([2]; % inhibition @ 1 μM): < 0.5 µM
CC(C)(N)C(=O)N1CCN(C(=O)Nc2ccn(-c3ccc(CNCC4(O)CNC4)cc3)c(=O)n2)CC1 [Compound 376]							IC50 ([1]; % inhibition @ 1 μM): > 1 µM; MIC (E. coli (Ec); [11]): < 8 µg/mL; MIC (P. aeruginosa (Pa); [12]): > 32 µg/mL; MIC (A. baumannii (Ab); [10]): > 32 µg/mL; IC50 ([2]; % inhibition @ 1 μM): < 0.5 µM
